From US10899738B2 (THE REGENTS OF THE UNIVERSITY OF MICHIGAN, priority 2016, dated 2021)
Like-named read-outs stand apart in the source and are kept apart here.

Experiments:
[1] = Cell growth inhibition, CellTiter-Glo Luminescent Cell Viability Assay; assay type: cell-based
Description: Cell growth inhibitory activity of representative menin inhibitors was determined using CellTiter-Glo® Luminescent Cell Viability Assay. Cells were seeded in 384-well white opaque cell culture plates at a density of 2,000 cells/well with serially diluted compounds and incubated at 37° C. in an atmosphere of 95% air and 5% CO2 for 4 days. Cell viability was determined using the CellTiter-Glo® Luminescent Cell Viability Assay Kit (Promega, Madison, Wis.) according to the manufacture's instruction. Briefly, a volume of CellTiter-Glo® Reagent equal to the volume of cell culture medium was added to each well, and then the plates were incubated at room temperature for 10-20 minutes. The luminescent signal was measured using a Tecan Infinite M1000 multimode microplate reader (Tecan, Morrisville, N.C.). The half maximal inhibitory concentration (IC50) was calculated using the GraphPad Prism 5 software (GraphPad Software, La Jolla, Calif.).

menin protein = menin protein (Homo sapiens (Human), UniProt O00255); assay: biochemical; assay type: binding; conditions: FP competitive binding; menin protein 4 nM, FAM-MM2 probe 2 nM; read-out: Menin Binding Affinity IC50
Summary of the method: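 Test compounds displaced FAM-MM2 (2 nM) from 4 nM menin after 30 min equilibration at room temperature in PBS buffer containing bovine γ-globulin, 4% DMSO and Triton X-100. Binding was followed by fluorescence polarization. Competition curves were fitted by nonlinear regression to give IC50 and Ki.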

[2] = MOLM-13, 96 h, read-out: Cell Growth Inhibition IC50 (μM) MOLM13, MOLM13 cells, 4 days, CellTiter-Glo
[3] = MV4-11, 96 h, read-out: Cell Growth Inhibition IC50 (μM) MV4, 11, MV4, 11 cells, 4 days, CellTiter-Glo

Chain of menin protein (O00255 whole entry): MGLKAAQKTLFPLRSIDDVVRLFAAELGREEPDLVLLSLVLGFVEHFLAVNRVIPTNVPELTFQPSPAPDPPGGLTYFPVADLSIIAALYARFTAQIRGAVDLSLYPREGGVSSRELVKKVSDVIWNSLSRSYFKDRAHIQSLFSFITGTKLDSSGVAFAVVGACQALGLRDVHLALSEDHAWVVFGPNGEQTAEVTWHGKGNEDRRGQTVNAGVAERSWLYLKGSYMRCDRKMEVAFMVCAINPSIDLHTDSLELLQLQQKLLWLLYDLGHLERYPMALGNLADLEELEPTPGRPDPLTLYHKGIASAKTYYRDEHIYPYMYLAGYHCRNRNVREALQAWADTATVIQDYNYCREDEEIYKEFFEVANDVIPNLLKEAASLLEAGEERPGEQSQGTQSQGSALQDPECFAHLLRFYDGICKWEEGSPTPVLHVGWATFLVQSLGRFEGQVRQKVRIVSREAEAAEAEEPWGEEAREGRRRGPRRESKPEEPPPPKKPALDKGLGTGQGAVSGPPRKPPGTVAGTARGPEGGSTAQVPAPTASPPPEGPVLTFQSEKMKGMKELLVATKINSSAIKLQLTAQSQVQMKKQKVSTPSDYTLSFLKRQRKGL

**Q.** For CCC(=O)O[C@H]1CCC[C@@H]1C(C#N)(c1ccccc1)C1CCN(CC2CN(c3ccc(S(=O)(=O)c4ccncc4)cc3)C2)CC1 (mixture of isomers) [compound 195, rac-(1S,2R)-2-(cyano(phenyl)(1-((1-(4-(pyridin-4-ylsulfonyl)phenyl)azetidin-3-yl)methyl)piperidin-4-yl)methyl)cyclopentyl propionate], which IC50 [1, 2] is on record?
**A.** Its IC50 is 1.5 µM.

**Q.** What about the IC50 [1, 3] of the same compound?
**A.** The IC50 was 0.991 µM.

**Q.** And the IC50 (menin protein)?
**A.** The IC50 was 10 nM.

**Q.** What does the source list for CC(=O)O[C@H]1CCC[C@@H]1C1(C2CCN(CC3CN(c4ccc(S(=O)(=O)c5ccnc(C)c5)cc4)C3)CC2)CN(C)Cc2ccccc21 (mixture of isomers) [compound 201, rac-(1S,2R)-2-(2-methyl-4-(1-((1-(4-((2-methylpyridin-4-yl)sulfonyl)phenyl)azetidin-3-yl)methyl)piperidin-4-yl)-1,2,3,4-tetrahydroisoquinolin-4-yl)cyclopentyl acetate]?
**A.** IC50 [1, 2]: 0.399 ± 0.153 µM; IC50 [1, 3]: 0.09 ± 0.051 µM; IC50 (menin protein): 5 nM

**Q.** For CC(=O)O[C@H]1CCC[C@@H]1C1(C2CCN(CC3CN(c4ccc(S(=O)(=O)C5CC5)cc4)C3)CC2)CN(C)Cc2ccccc21 (mixture of isomers) [compound 203, rac-(1S,2R)-2-(4-(1-((1-(4-(cyclopropylsulfonyl)phenyl)azetidin-3-yl)methyl)piperidin-4-yl)-2-methyl-1,2,3,4-tetrahydroisoquinolin-4-yl)cyclopentyl acetate], which IC50 [1, 2] is on record?
**A.** Its IC50 is 0.687 µM.

**Q.** And the IC50 [1, 3]?
**A.** Its IC50 is 0.234 µM.

**Q.** And the IC50 (menin protein)?
**A.** The IC50 was 9 nM.

**Q.** Which IC50 [1, 2] does the source give for CC(=O)O[C@H]1CCC[C@@H]1C1(C2CCN(CC3CN(c4ccc(S(=O)(=O)c5ccncc5)cc4)C3)CC2)CN(C)Cc2ccccc21 (mixture of isomers) [compound 206, rac-(1S,2R)-2-(2-methyl-4-(1-((1-(4-(pyridin-4-ylsulfonyl)phenyl)azetidin-3-yl)methyl)piperidin-4-yl)-1,2,3,4-tetrahydroisoquinolin-4-yl)cyclopentyl acetate] here?
**A.** Its IC50 is 0.411 ± 0.3 µM.

**Q.** What about the IC50 [1, 3] of the same compound?
**A.** The IC50 was 0.119 ± 0.048 µM.

**Q.** And the IC50 (menin protein)?
**A.** Its IC50 is 3 nM.

**Q.** Which IC50 [1, 2] does the source give for N#CC(c1ccccc1)(C1CCN(CC2CN(c3ccc(S(=O)(=O)c4ccncc4)cc3)C2)CC1)[C@H]1CCC[C@@H]1OC(N)=O (mixture of isomers) [compound 211, rac-(1S,2R)-2-(cyano(phenyl)(1-((1-(4-(pyridin-4-ylsulfonyl)phenyl)azetidin-3-yl)methyl)piperidin-4-yl)methyl)cyclopentyl carbamate] here?
**A.** The IC50 was 0.546 µM.

**Q.** And the IC50 [1, 3]?
**A.** The IC50 was 0.302 µM.

**Q.** And the IC50 (menin protein)?
**A.** The IC50 was 9 nM.

**Q.** What does the source list for CN1Cc2ccccc2C(C2CCN(CC3CN(c4ccc(S(=O)(=O)c5ccncc5)cc4)C3)CC2)([C@H]2CCC[C@@H]2OC(N)=O)C1 (mixture of isomers) [compound 219, rac-(1S,2R)-2-(2-methyl-4-(1-((1-(4-(pyridin-4-ylsulfonyl)phenyl)azetidin-3-yl)methyl)piperidin-4-yl)-1,2,3,4-tetrahydroisoquinolin-4-yl)cyclopentyl carbamate]?
**A.** IC50 [1, 2]: 0.236 µM; IC50 [1, 3]: 0.074 ± 0.011 µM; IC50 (menin protein): 3 nM

**Q.** For N#CC(c1ccccc1)(C1CCN(CC2CN(c3ccc(S(=O)(=O)c4ccccc4)cc3)C2)CC1)[C@H]1CCC[C@@H]1OC(N)=O (mixture of isomers) [compound 223, rac-(1S,2R)-2-(cyano(phenyl)(1-((1-(4-(phenylsulfonyl)phenyl)azetidin-3-yl)methyl)piperidin-4-yl)methyl)cyclopentyl carbamate], which IC50 [1, 2] is on record?
**A.** The IC50 was 0.49 µM.

**Q.** And the IC50 [1, 3]?
**A.** The IC50 was 0.29 µM.

**Q.** What about the IC50 (menin protein) of the same compound?
**A.** Its IC50 is 14 nM.

**Q.** With CNC(=O)O[C@H]1CCC[C@@H]1C(C#N)(c1ccccc1)C1CCN(CC2CN(c3ccc(S(=O)(=O)c4ccccc4)cc3)C2)CC1 (mixture of isomers) [compound 225, rac-(1S,2R)-2-(cyano(phenyl)(1-((1-(4-(phenylsulfonyl)phenyl)azetidin-3-yl)methyl)piperidin-4-yl)methyl)cyclopentyl methylcarbamate] as the compound, how does the IC50 [1, 2] read?
**A.** Its IC50 is 0.82 µM.

**Q.** What about the IC50 [1, 3] of the same compound?
**A.** Its IC50 is 0.24 µM.

**Q.** And the IC50 (menin protein)?
**A.** Its IC50 is 9 nM.

**Q.** Which results are given for CNC(=O)O[C@H]1CCC[C@@H]1C(C#N)(c1ccccc1)C1CCN(CC2CN(c3ccc(S(=O)(=O)c4nn(C)cc4Br)cc3)C2)CC1 (mixture of isomers) [compound 228, rac-(1S,2R)-2-((1-((1-(4-((4-bromo-1-methyl-1H-pyrazol-3-yl)sulfonyl)phenyl)azetidin-3-yl)methyl)piperidin-4-yl)(cyano)(phenyl)methyl) cyclopentyl methylcarbamate]?
**A.** IC50 [1, 2]: 0.25 µM; IC50 [1, 3]: 0.18 µM; IC50 (menin protein): 4 nM

**Q.** Which results are given for CNC(=O)O[C@H]1CCC[C@@H]1C(C#N)(c1ccccc1)C1CCN(CC2CN(c3ccc(S(=O)(=O)c4ccn(C)n4)cc3)C2)CC1 (mixture of isomers) [compound 230, rac-(1S,2R)-2-(cyano(1-((1-(4-((1-methyl-1H-pyrazol-3-yl)sulfonyl)phenyl)azetidin-3-yl)methyl)piperidin-4-yl)(phenyl)methyl) cyclopentyl methylcarbamate]?
**A.** IC50 [1, 2]: 0.25 µM; IC50 [1, 3]: 0.092 µM; IC50 (menin protein): 7 nM

**Q.** Which IC50 [1, 2] does the source give for CNC(=O)O[C@H]1CCC[C@@H]1C(C#N)(c1ccccc1)C1CCN(CCCOc2ccc(C#N)cc2)CC1 (mixture of isomers) [compound 232, rac-(1S,2R)-2-(cyano(1-(3-(4-cyanophenoxy)propyl)piperidin-4-yl)(phenyl)methyl)cyclopentyl methylcarbamate] here?
**A.** Its IC50 is 0.94 µM.

**Q.** And the IC50 [1, 3]?
**A.** Its IC50 is 0.3 µM.

**Q.** What about the IC50 (menin protein) of the same compound?
**A.** Its IC50 is 20 nM.

**Q.** Which results are given for CNC(=O)O[C@H]1CCC[C@@H]1C(C#N)(c1ccccc1)C1CCN(C2CCN(c3ccc(S(=O)(=O)c4ccccc4)cc3)CC2)CC1 (mixture of isomers) [compound 234, rac-(1S,2R)-2-(cyano(phenyl)(1′-(4-(phenylsulfonyl)phenyl)-[1,4′-bipiperidin]-4-yl)methyl)cyclopentyl methylcarbamate]?
**A.** IC50 [1, 2]: 6.41 µM; IC50 [1, 3]: 1.11 µM; IC50 (menin protein): 50 nM

**Q.** With CNC(=O)O[C@H]1CCC[C@@H]1C(C#N)(c1ccccc1)C1CCN(CC2CN(c3ccc(S(=O)(=O)c4cnn(C)c4)cc3)C2)CC1 (mixture of isomers) [compound 240, rac-(1S,2R)-2-(cyano(1-((1-(4-((1-methyl-1H-pyrazol-4-yl)sulfonyl)phenyl)azetidin-3-yl)methyl)piperidin-4-yl)(phenyl)methyl) cyclopentyl methylcarbamate] as the compound, how does the IC50 [1, 2] read?
**A.** Its IC50 is 0.54 µM.

**Q.** What about the IC50 [1, 3] of the same compound?
**A.** The IC50 was 0.2 µM.

**Q.** What about the IC50 (menin protein) of the same compound?
**A.** Its IC50 is 9 nM.

**Q.** Which results are given for CC(=O)N[C@H]1CCC[C@@H]1C(C#N)(c1ccccc1)C1CCN(CC2CN(c3ccc(S(=O)(=O)c4ccncc4)cc3)C2)CC1 (mixture of isomers) [compound 263, rac-N-((1S,2R)-2-(cyano(phenyl)(1-((1-(4-(pyridin-4-ylsulfonyl)phenyl)azetidin-3-yl)methyl)piperidin-4-yl)methyl)cyclopentyl) acetamide]?
**A.** IC50 [1, 2]: 1.4 µM; IC50 [1, 3]: 0.254 µM; IC50 (menin protein): 10 nM

**Q.** Which IC50 [1, 2] does the source give for CNC(=O)N[C@H]1CCC[C@@H]1C(C#N)(c1ccccc1)C1CCN(CC2CN(c3ccc(S(=O)(=O)c4ccncc4)cc3)C2)CC1 (mixture of isomers) [compound 269, rac-1-((1S,2R)-2-(cyano(phenyl)(1-((1-(4-(pyridin-4-ylsulfonyl)phenyl)azetidin-3-yl)methyl)piperidin-4-yl)methyl)cyclopentyl)-3-methylurea] here?
**A.** The IC50 was 1.73 µM.

**Q.** And the IC50 [1, 3]?
**A.** Its IC50 is 0.273 µM.

**Q.** What about the IC50 (menin protein) of the same compound?
**A.** Its IC50 is 9 nM.

**Q.** With CC(=O)N[C@H]1CCC[C@@H]1C1(C2CCN(CC3CN(c4ccc(S(=O)(=O)c5ccncc5)cc4)C3)CC2)CN(C)Cc2ccccc21 (mixture of isomers) [compound 271, rac-N-((1S,2R)-2-(2-methyl-4-(1-((1-(4-(pyridin-4-ylsulfonyl)phenyl)azetidin-3-yl)methyl)piperidin-4-yl)-1,2,3,4-tetrahydroisoquinolin-4-yl)cyclopentyl)acetamide] as the compound, how does the IC50 [1, 2] read?
**A.** Its IC50 is 0.717 ± 0.002 µM.

**Q.** And the IC50 [1, 3]?
**A.** The IC50 was 0.123 ± 0.043 µM.

**Q.** What about the IC50 (menin protein) of the same compound?
**A.** The IC50 was 5 nM.

**Q.** For CC(=O)N[C@@H]1CCC[C@H]1C1(C2CCN(CC3CN(c4ccc(S(=O)(=O)c5ccncc5)cc4)C3)CC2)CN(C)Cc2ccccc21 (mixture of isomers) [compound 272, rac-N-((1R,2S)-2-(2-methyl-4-(1-((1-(4-(pyridin-4-ylsulfonyl)phenyl)azetidin-3-yl)methyl)piperidin-4-yl)-1,2,3,4-tetrahydroisoquinolin-4-yl)cyclopentyl)acetamide], which IC50 [1, 2] is on record?
**A.** The IC50 was 2.97 µM.

**Q.** What about the IC50 [1, 3] of the same compound?
**A.** Its IC50 is 4.29 ± 1.45 µM.

**Q.** And the IC50 (menin protein)?
**A.** The IC50 was 180 nM.

**Q.** With CN(C)C(=O)N[C@H]1CCC[C@@H]1C(C#N)(c1ccccc1)C1CCN(CC2CN(c3ccc(S(=O)(=O)c4ccncc4)cc3)C2)CC1 (mixture of isomers) [compound 275, rac-3-((1S,2R)-2-(cyano(phenyl)(1-((1-(4-(pyridin-4-ylsulfonyl)phenyl)azetidin-3-yl)methyl)piperidin-4-yl)methyl)cyclopentyl)-1,1-dimethylurea] as the compound, how does the IC50 [1, 2] read?
**A.** Its IC50 is 0.41 µM.

**Q.** And the IC50 [1, 3]?
**A.** Its IC50 is 0.45 µM.

**Q.** What about the IC50 (menin protein) of the same compound?
**A.** Its IC50 is 12 nM.

**Q.** Which IC50 [1, 2] does the source give for CNC(=O)N[C@H]1CCC[C@@H]1C1(C2CCN(CC3CN(c4ccc(S(=O)(=O)c5ccncc5)cc4)C3)CC2)CN(C)Cc2ccccc21 (mixture of isomers) [compound 277, rac-1-methyl-3-((1S,2R)-2-(2-methyl-4-(1-((1-(4-(pyridin-4-ylsulfonyl)phenyl)azetidin-3-yl)methyl)piperidin-4-yl)-1,2,3,4-tetrahydroisoquinolin-4-yl)cyclopentyl)urea] here?
**A.** Its IC50 is 0.43 µM.

**Q.** What about the IC50 [1, 3] of the same compound?
**A.** The IC50 was 0.12 µM.

**Q.** What about the IC50 (menin protein) of the same compound?
**A.** The IC50 was 8 nM.
